Reference: patent US12612412B2, “Antiviral heterocyclic compounds” (Enanta Pharmaceuticals, Inc., priority 2021, dated 2026)
Read-outs that look alike come from different tables or passages of the source.

Tests used:
[1] = system: genotype A, "Long" strain RSV; assay: RSV-A assay (CPE protection in Hep-2 cells, ATPlite readout); format: cell-based, Human respiratory syncytial virus (HRSV); conditions: human respiratory syncytial virus, MOI 0.1, CPE protection
How it was run: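 Hep-2 cells (8,000/well) infected with RSV Long strain at MOI 0.1 in the presence of 2-fold compound dilutions in duplicate. After 5 days, cell viability measured by ATPlite luminescence, normalized between virus-only and uninfected cell controls; EC50 reported.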

[2] = system: HMPV clinical isolate TN/1501/A1; assay: HMPV antiviral assay Method-B (clinical isolate TN/1501/A1 in LLC-MK2 cells, ATP-Lite readout); format: cell-based, Human metapneumovirus (HMPV); conditions: hMPV WT1501 (clinical isolate TN/1501/A1), 6 days
How it was run: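 LLC-MK2 cells infected in suspension with TN/1501/A1 at MOI 0.014 in serum-free medium with 2 μg/mL TPCK-trypsin (final), incubated 6 days at 37° C. Compounds tested in duplicate, 10-point 3-fold dilutions from 10 μM. Cell health read by ATP-Lite luminescence, normalised to virus-only and cells-only controls; EC50 by four-parameter logistic fit.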

[3] = genotype A “Long” strain RSV, read-out: Human RSV-A (“Long”)
[4] = human metapneumovirus, LLC-MK2, 144 h
[5] = RSV-A Long strain, read-out: Human RSV-A (“Long”) EC50

Structure (SMILES): COc1cc(C(=O)NC[C@](O)(c2cc3c(c(-c4cc(Cl)c(F)cc4F)n2)OC[C@]3(C)C(N)=O)C2(F)CC2)cc2cc(Cl)c(C)nc12 [Example 760]
- EC50 [1, 3]: < 200 nM
- EC50 [2, 4]: < 500 nM

Structure (SMILES): COc1cc(C(=O)NC[C@](O)(c2cc3c(c(-c4cc(Cl)c(F)cc4F)n2)OC[C@]3(C)C(N)=O)C2CC2)cc2cn(C3(F)CC3)nc12 [Example 663]
- EC50 [1, 3]: < 200 nM
- EC50 [2, 4]: < 500 nM

Structure (SMILES): COc1cc(C(=O)NC[C@](O)(c2cc3c(c(-c4ccc5c(c4)OC(F)(F)O5)n2)OC[C@@]3(C(N)=O)C(F)F)C2CC2)cc2cn(C3CC3)nc12 [Example 1011]
- EC50 [1, 5]: < 200 nM
- EC50 [2, 4]: < 500 nM

Structure (SMILES): COc1cc(C(=O)NC[C@](O)(c2cc3c(c(-c4ccc5c(c4)OC(F)(F)O5)n2)OC[C@]3(C)C(N)=O)C2CC2)cc2cn(C3(Cl)CC3)nc12 [Example 838]
- EC50 [1, 5]: < 200 nM
- EC50 [2, 4]: < 500 nM

Structure (SMILES): COc1cc(C(=O)NC[C@](O)(c2cc3c(c(-c4cc(F)c(F)cc4F)n2)OC[C@]3(C)C(N)=O)C(F)(F)F)cc2cc(Cl)c(C)nc12 [Example 1140]
- EC50 [1, 5]: < 200 nM
- EC50 [2, 4]: < 500 nM

Structure (SMILES): Cc1cnc2c(OC(F)F)cc(C(=O)NC[C@](O)(c3cc4c(c(-c5ccc(F)cc5)n3)OC[C@]4(CF)C(N)=O)C3CC3)cc2c1 [Example 1058]
- EC50 [1, 5]: < 200 nM
- EC50 [2, 4]: < 500 nM

Structure (SMILES): COc1cc(C(=O)NC[C@](O)(c2cc3c(c(-c4ccc(F)c(Br)c4F)n2)OC[C@]3(C)C(N)=O)C2CC2)cc2cn(C(F)F)nc12 [Example 801]
- EC50 [1, 3]: < 200 nM
- EC50 [2, 4]: < 500 nM

Structure (SMILES): COc1cc(C(=O)NC[C@](O)(c2cc3c(c(-c4ccc(F)cc4)n2)OC[C@]3(C(N)=O)C(F)F)C2CC2)cc2cc(Cl)c(C)nc12 [Example 1030]
- EC50 [1, 5]: < 200 nM
- EC50 [2, 4]: > 500 nM

Structure (SMILES): COc1cc(C(=O)NC[C@](O)(c2cc3c(c(-c4ccc(F)c(Br)c4F)n2)OC[C@]3(C)C(N)=O)C(F)(F)F)cc2cn(C3CC3)nc12 [Example 956]
- EC50 [1, 5]: < 200 nM
- EC50 [2, 4]: < 500 nM

Structure (SMILES): COc1cc(C(=O)NC[C@](O)(c2cc3c(c(-c4cc(F)c(Cl)cc4F)n2)OC[C@]3(C)C(N)=O)C2CC2)cc2cn(C(F)F)nc12 [Example 1178]
- EC50 [1, 5]: < 200 nM
- EC50 [2, 4]: < 500 nM

Structure (SMILES): COc1cc(C(=O)NC[C@](O)(c2cc3c(c(-c4cc(Br)c(F)cc4F)n2)OC[C@]3(C)C(N)=O)C(F)(F)F)cc2cn(C3CC3)nc12 [Example 1223]
- EC50 [1, 5]: < 200 nM
- EC50 [2]: < 500 nM

Structure (SMILES): COc1cc(C(=O)NC[C@](O)(c2cc3c(c(-c4ccc(F)c(F)c4Cl)n2)OC[C@]3(C)C(N)=O)C2CC2)cc2cc(Cl)c(C)nc12 [Example 565]
- EC50 [1, 3]: < 200 nM
- EC50 [2, 4]: < 500 nM

Structure (SMILES): C[C@]1(C(N)=O)COc2c1cc([C@@](O)(CNC(=O)c1cc(OCCF)c3nn(C4(F)CC4)cc3c1)C(F)(F)F)nc2-c1cc(Cl)c(F)cc1F [Example 618]
- EC50 [1, 3]: < 200 nM
- EC50 [2, 4]: < 500 nM

Structure (SMILES): COc1cc(C(=O)NC[C@](O)(c2cc3c(c(-c4cc(Cl)ccc4F)n2)OC[C@]3(C)C(N)=O)C2CC2)cc2cn(C3CC3)nc12 [Example 536]
- EC50 [1, 3]: < 200 nM
- EC50 [2, 4]: < 500 nM

Structure (SMILES): COc1cc(C(=O)NC[C@](O)(c2cc3c(c(-c4ccc(F)cc4)n2)OC[C@]3(C(N)=O)C2CC2)C(F)(F)F)cc2cc(C3CC3)nn12 [Example 1066]
- EC50 [1, 5]: > 200 nM
- EC50 [2, 4]: > 500 nM

Structure (SMILES): COc1cc(C(=O)NC[C@](O)(c2cc3c(c(-c4ccc(F)cc4)n2)OC[C@]3(C)C(N)=O)C2(F)CC2)cc2cn(C3(F)CC3)nc12 [Example 756]
- EC50 [1, 3]: < 200 nM
- EC50 [2, 4]: < 500 nM

Structure (SMILES): Cc1cnc2c(OC(F)F)cc(C(=O)NC[C@](O)(c3cc4c(c(-c5ccc(F)c(F)c5F)n3)OC[C@]4(C)C(N)=O)C3(F)CC3)cc2c1 [Example 730]
- EC50 [1, 3]: < 200 nM
- EC50 [2, 4]: < 500 nM

Structure (SMILES): COc1cc(C(=O)NC[C@](O)(c2cc3c(c(-c4ccc(F)cc4)n2)OC[C@@]3(CF)C(N)=O)C2CC2)cc2cc(Cl)c(C)nc12 [Example 1055]
- EC50 [1, 5]: > 200 nM
- EC50 [2, 4]: > 500 nM

Structure (SMILES): COc1cc(C(=O)NC[C@](O)(c2cc3c(c(-c4ccc5c(c4)OC(F)(F)O5)n2)OC[C@@]3(C(N)=O)C(F)F)C2CC2)cc2cc(Cl)c(C)nc12 [Example 1015]
- EC50 [1, 5]: < 200 nM
- EC50 [2, 4]: < 500 nM

Structure (SMILES): COc1cc(C(=O)NC[C@](O)(c2cc3c(c(-c4cccc(OC(F)F)c4)n2)OC[C@]3(C)C(N)=O)C(F)(F)F)cc2cn(C3CC3)nc12 [Example 918]
- EC50 [1, 5]: < 200 nM
- EC50 [2, 4]: > 500 nM

Structure (SMILES): C[C@]1(C(N)=O)COc2c1cc([C@@](O)(CNC(=O)c1cc(Cl)c3nn(C4CC4)cc3c1)C1CC1)nc2-c1c(F)ccc(Cl)c1F [Example 1166]
- EC50 [1, 5]: < 200 nM
- EC50 [2, 4]: < 500 nM

Structure (SMILES): COc1cc(C(=O)NC[C@](O)(c2cc3c(c(-c4cc(F)c(F)cc4Cl)n2)OC[C@]3(C)C(N)=O)C2CC2)cc2cc(Br)cnc12 [Example 660]
- EC50 [1, 3]: < 200 nM
- EC50 [2, 4]: < 500 nM

Structure (SMILES): COc1cc(C(=O)NC[C@](O)(c2cc3c(c(-c4ccc(F)cc4)n2)OC[C@]3(C)C(N)=O)C2(F)CC2)cc2sc(C3CC3)nc12 [Example 742]
- EC50 [1, 3]: < 200 nM
- EC50 [2, 4]: < 500 nM

Structure (SMILES): Cc1cnc2c(OC(F)(F)F)cc(C(=O)NC[C@](O)(c3cc4c(c(-c5ccc(F)cc5Cl)n3)OC[C@]4(C)C(N)=O)C(F)(F)F)cc2c1 [Example 519]
- EC50 [1, 3]: < 200 nM
- EC50 [2, 4]: > 500 nM

Structure (SMILES): COc1cc(C(=O)NC[C@](O)(c2cc3c(c(-c4cc(Br)c(F)cc4F)n2)OC[C@]3(C)C(N)=O)C2CC2)cc2cc(Cl)c(C)nc12 [Example 1094]
- EC50 [1, 5]: < 200 nM
- EC50 [2, 4]: < 500 nM

Structure (SMILES): COc1cc(C(=O)NC[C@](O)(c2cc3c(c(-c4ccc(F)c(F)c4Cl)n2)OC[C@]3(C)C(N)=O)C2(F)CC2)cc2cn(C(F)F)nc12 [Example 748]
- EC50 [1, 3]: < 200 nM
- EC50 [2, 4]: < 500 nM

Structure (SMILES): Cc1cnc2c(Cl)cc(C(=O)NC[C@](O)(c3cc4c(c(-c5ccc(Cl)c(F)c5F)n3)OC[C@]4(C)C(N)=O)C3CC3)cc2c1 [Example 688]
- EC50 [1, 3]: < 200 nM
- EC50 [2, 4]: < 500 nM

Structure (SMILES): COc1cc(C(=O)NC[C@](O)(c2cc3c(c(-c4cc(Cl)c(F)cc4F)n2)OC[C@]3(C)C(N)=O)C2(F)CC2)cc2cn(C(F)F)nc12 [Example 766]
- EC50 [1, 3]: < 200 nM
- EC50 [2, 4]: < 500 nM

Structure (SMILES): COc1cc(C(=O)NC[C@](O)(c2cc3c(c(-c4ccc(F)c(Cl)c4)n2)OC[C@@]3(C(N)=O)C(F)F)C(F)(F)F)cc2sc(C)nc12 [Example 1019]
- EC50 [1, 5]: < 200 nM
- EC50 [2, 4]: < 500 nM

Structure (SMILES): C[C@]1(C(N)=O)COc2c1cc([C@@](O)(CNC(=O)c1ccn3nc(C4CC4)cc3c1)C(F)(F)F)nc2-c1ccc2c(c1)OC(F)(F)O2 [Example 592]
- EC50 [1, 3]: < 200 nM
- EC50 [2, 4]: < 500 nM

Structure (SMILES): COc1cc(C(=O)NC[C@](O)(c2cc3c(c(-c4csc5c(F)cccc45)n2)OC[C@]3(C)C(N)=O)C(F)(F)F)cc2cc(C3CC3)nn12 [Example 598]
- EC50 [1, 3]: < 200 nM
- EC50 [2, 4]: < 500 nM

Structure (SMILES): Cc1cnc2c(OC(F)(F)F)cc(C(=O)NC[C@](O)(c3cc4c(c(-c5ccc6c(c5)OC(F)(F)O6)n3)OC[C@]4(C)C(N)=O)C3CC3)cc2c1 [Example 542]
- EC50 [1, 3]: < 200 nM
- EC50 [2, 4]: < 500 nM

Structure (SMILES): COc1cc(C(=O)NC[C@](O)(c2cc3c(c(-c4ccc(C(F)(F)F)c(Cl)c4)n2)OC[C@]3(C)C(N)=O)C(F)(F)F)cc2cc(Cl)c(C)nc12 [Example 581]
- EC50 [1, 3]: < 200 nM
- EC50 [2, 4]: > 500 nM

Structure (SMILES): COc1cc(C(=O)NC[C@](O)(c2cc3c(c(-c4ccc(F)c(Cl)c4)n2)OC[C@]3(C(N)=O)C(F)F)C(F)(F)F)cc2cc(Cl)c(C)nc12 [Example 1004]
- EC50 [1, 5]: > 200 nM
- EC50 [2, 4]: > 500 nM

Structure (SMILES): COc1cc(C(=O)NC[C@](O)(c2cc3c(c(-c4csc5c(F)cccc45)n2)OC[C@]3(C)C(N)=O)C2CC2)cc2cn(C(F)F)nc12 [Example 594]
- EC50 [1, 3]: < 200 nM
- EC50 [2, 4]: < 500 nM

Structure (SMILES): Cc1cnc2c(OC(F)(F)F)cc(C(=O)NC[C@](O)(c3cc4c(c(-c5ccc(F)cc5)n3)OC[C@]4(C)C(N)=O)C(F)(F)F)cc2c1 [Example 501]
- EC50 [1, 3]: < 200 nM
- EC50 [2, 4]: > 500 nM

Structure (SMILES): COc1cc(C(=O)NC[C@](O)(c2cc3c(c(-c4cc(Cl)c(F)cc4F)n2)OC[C@]3(C)C(N)=O)C(F)(F)F)cc2cn(C3CC3)nc12 [Example 952]
- EC50 [1, 5]: < 200 nM
- EC50 [2, 4]: < 500 nM

Structure (SMILES): COc1cc(C(=O)NC[C@](O)(c2cc3c(c(-c4ccc5c(c4)CC5)n2)OC[C@]3(C)C(N)=O)C(F)(F)F)cc2cn(C3CC3)nc12 [Example 980]
- EC50 [1, 5]: < 200 nM
- EC50 [2, 4]: < 500 nM

Structure (SMILES): COc1cc(C(=O)NC[C@](O)(c2cc3c(c(-c4ccc5ccccc5c4)n2)OC[C@]3(C)C(N)=O)C(F)(F)F)cc2cn(C3CC3)nc12 [Example 965]
- EC50 [1, 5]: > 200 nM
- EC50 [2, 4]: > 500 nM
